Experiments:
[1] = cited from earlier work
[2] = cited from earlier work; remark: listed apart in the source
[3] = system: HepG2 xenograft mouse model; test: In vivo efficacy in tumor bearing animal model
Procedure: In vivo efficacy in a tumor bearing animal model. The in vivo anticancer efficacy of free DOX and the DDP/H-TCA composition was evaluated in a HepG2 xenograft mouse model. Animals which were treated with free DOX delivered via both orally and via IV administration were used as a control group, and DDP/H-TCA compositions were administered orally every 3 days at a dose of 4 mg DOX/kg, up to 18 days.
HepG2 cells (5×10^6 cells/mL) in 100 μL PBS were injected subcutaneously into the back of each mouse. When the tumor size reached approximately 100-150 mm^3, each mouse received an oral administration of PBS, 4 mg/kg DOX, or 4 mg/kg DOX in a DDP/H-TCA composition, once every three days. In addition, an equal amount of doxorubicin was intravenously (IV) administered in a control group. Tumors were measured every three days with a digital caliper and the tumor volume was calculated using the equation shown below.
To achieve a relatively high concentration, the lyophilized powder of DDP/H-TCA particles was reconstituted in DI water just prior to in vivo administration. First, the tumor growth inhibition efficacy of bile acid-coated DOX-loaded particles was investigated in a mouse xenograft model. Doxorubicin (DOX) at a dose of 4 mg/kg, or an equivalent amount of DOX formulated as DDP/H-TCA particles, was prepared and delivered via IV or oral administration every 3 days up to 18 days to monitor tumor progression. DOX-loaded particles without a bile acid (i.e. no TCA) were also tested as a non-targeted control formulation to evaluate the tumor inhibition efficacy of the TCA. Because tumors in the PBS control group were quite aggressive and reached over 10% of the animals' body weight around day 18, all treatments were terminated and all mice were sacrificed at day 18.

[4] = system: HepG2 cells; test: In vitro cytotoxicity of polymers and DOX-loaded particles, MTT assay; type: cell-based, human; conditions: 0.01-100 ug/mL, 24, 48 and 72 hr
Procedure: In vitro cytotoxicity of DOX-loaded particles. To evaluate the cytotoxicity of the polymers and DOX-loaded particles, samples were transfected in a dose-dependent manner and evaluated by an MTT-based cell viability assay using HepG2 cells. Cell Culture: HepG2 cells (a human hepatoma cell line) were cultured in DMEM supplemented with 10% FBS and D-glucose (4.5 g/L). Cells were grown and maintained under humidified air containing 5% CO2 at 37° C. Cell Viability: a MTT assay was used to evaluate the cell viability of bile acid-linked polymers and DOX-loaded particles. HepG2 cells were seeded into a 96-well plate at a cell density of 5×10^3 cells/well in 100 μL media. […] MTT (10 μL; 5 mg/mL) solution was then added to the wells and incubated for 4 hr. All remaining media was aspirated, and DMSO (100 μL) was added to dissolve the formazan crystals produced from living cells with 10 min incubation at 37° C. The absorbance of the cells was measured at 570 nm and their cell viability was calculated.

[5] = system: HT-29 xenograft; test: In vivo therapeutic efficacy in tumor bearing animal model; set-up: species or system NOD/SCID mice; conditions: oral, 10 mg/kg DOX, over 12 days
Procedure: In vivo therapeutic efficacy in a tumor bearing animal model. The in vivo anticancer efficacy of free DOX, the cationic DOX-loaded liposome without a bile acid coating (“DOX-liposome”), and the anionic DOX-loaded liposome with the CS-TCA coating (“DL/CS-TCA”) was evaluated in a xenograft mouse model. HT-29 cells (1×10^7 cells per mouse) were subcutaneously injected into the back of NOD/SCID mice (n=3). When the tumor size reached approximately 100-150 mm^3, each mouse received an oral administration of PBS, 10 mg/kg free DOX, 10 mg/kg DOX in the DOX-liposome composition, or 10 mg/kg DOX in the DL/CS-TCA composition, once every two days. Tumor size and body weight were measured every 2 days. Tumor volumes were measured with a digital caliper and the tumor volume was calculated using the equation shown below. Tumor volume=(Length×width^2)/2

[6] = DOX biodistribution in tumor-bearing mice (DOX fluorescence); type: in vivo, HepG2 tumor-bearing NOD/SCID mice; conditions: IV injection, 4 hr, versus orally administered groups
Procedure: Biodistribution. A biodistribution study was performed in HepG2 tumor-bearing NOD/SCID mice. The major organs and intestinal tract of each mouse were collected 4 hr after administration of the formulations. The liver, kidney, heart, stomach, small intestine including duodenum, jejunum, ileum, and tumor of each mouse was collected and suspended in 70% ethanol with 0.3 N HCl. The samples were then homogenized to extract the doxorubicin, and then the samples were refrigerated for 24 hr and centrifuged to collect supernatant. For analysis, 200 μL of the supernatant was loaded in a black opaque plate and DOX fluorescence was measured using a plate reader, where the wavelengths of excitation and emission were 470 and 590 nm, respectively.

[7] = system: caco-2 cells; test: In vitro cellular uptake of insulin-Ce6 liposomes; type: cell-based, Human; conditions: insulin-Ce6 10 ug/mL, 4 hr
Procedure: In vitro cellular uptake. Human epithelial colorectal adenocarcinoma cells (caco-2 cells) were maintained in Dulbeco's Modified Eagle's Medium (DMEM) with 1% penicillin-streptomycin and 10% FBS in a humidified standard incubator at 37° C. with a 5% CO2 atmosphere. Prior to testing, cells (1×10^5 cells/mL) that were grown as a monolayer were harvested via trypsinization using a 0.25% (wt/vol) trypsin/0.03% (wt/vol) EDTA solution. Caco-2 cells suspended in DMEM were seeded onto each well plate and cultured for 24 hours prior to the in vitro cell testing. The cellular uptake of the liposomes (provided in an amount equivalent to an insulin-Ce6 concentration of 10 ug/mL, treated for 4 hr) was monitored by FACSCalibur Flow Cytometer (Becton Dickinson, USA). In addition, the localization of the liposome was examined by fluorescence of the insulin-Ce6 loaded liposome using a confocal laser scanning microscope.

| Molecule | pKa [1] | oral bioavailability [2] | body weight ([3]; 4 mg DOX/kg every 3 days up to 18 days) | inhibition of tumor growth ([3]; IV, 4 mg/kg every 3 days, up to 18 days) | increase in tumor volume ([3]; oral, 4 mg DOX/kg every 3 days, up to 18 days) [%] | cytotoxicity (cell viability) [4] | change in tumor volume [5] | relative body weight [5] | DOX concentration in heart and liver tissues [6] | labeled insulin present in cells [7] |
| --- | --- | --- | --- | --- | --- | --- | --- | --- | --- | --- |
| COc1cccc2c1C(=O)c1c(O)c3c(c(O)c1C2=O)C[C@@](O)(C(=O)CO)C[C@@H]3O[C@H]1C[C@H](N)[C@H](O)[C@H](C)O1 [DOX, doxorubicin] | 7.2-8.0 | about 5% | no significant weight loss | greatest inhibition of tumor growth | ~1400 | highest dose-dependent cytotoxicity | not statistically better at reducing tumor volume than the buffer | decrease slightly | higher concentration of DOX was seen in the heart and liver tissues | – |
| free insulin: Ce6-labeled insulin given without liposomes | – | – | – | – | – | – | – | – | – | relatively little labeled insulin present |

Reference: patent publication US10350169B2, “Compositions and methods for bile acid particles” (UNIVERSITY OF UTAH RESEARCH FOUNDATION, priority 2014, dated 2019)
